Data as given in ChEMBL document CHEMBL3396986, “Novel β-amyloid aggregation inhibitors possessing a turn mimic” (Bioorg Med Chem Lett, 2015).
Activity calls are given as the source filed them. No cut-off for these calls is given here. *1 amine or outer side, *2 acyl side, *3 side chain or, on linkers, in order; H or OH if unused. Where a SMILES comes first, the peptide text is derived from it. [ ]: non-standard residue; d: D form. X1 = O=C(CCc1cccc2c1oc1c(CCN[*:1])cccc12)[*:2]; PEG8 = NCCOCCOCCOCCOCCOCCOCCOCCOCCC(=O)O; Met(O) = CS(=O)CC[C@H](N)C(=O)O

What was measured:
[1] = target: Amyloid-beta precursor protein (Homo sapiens) (UniProt P05067); test: Inhibition of authentic Amyloid beta (1 to 42) (unknown origin) aggregation 6 to 48 hrs by Thioflavin-T fluorescence assay
Sequence of Amyloid-beta precursor protein (Homo sapiens) (P05067 whole entry): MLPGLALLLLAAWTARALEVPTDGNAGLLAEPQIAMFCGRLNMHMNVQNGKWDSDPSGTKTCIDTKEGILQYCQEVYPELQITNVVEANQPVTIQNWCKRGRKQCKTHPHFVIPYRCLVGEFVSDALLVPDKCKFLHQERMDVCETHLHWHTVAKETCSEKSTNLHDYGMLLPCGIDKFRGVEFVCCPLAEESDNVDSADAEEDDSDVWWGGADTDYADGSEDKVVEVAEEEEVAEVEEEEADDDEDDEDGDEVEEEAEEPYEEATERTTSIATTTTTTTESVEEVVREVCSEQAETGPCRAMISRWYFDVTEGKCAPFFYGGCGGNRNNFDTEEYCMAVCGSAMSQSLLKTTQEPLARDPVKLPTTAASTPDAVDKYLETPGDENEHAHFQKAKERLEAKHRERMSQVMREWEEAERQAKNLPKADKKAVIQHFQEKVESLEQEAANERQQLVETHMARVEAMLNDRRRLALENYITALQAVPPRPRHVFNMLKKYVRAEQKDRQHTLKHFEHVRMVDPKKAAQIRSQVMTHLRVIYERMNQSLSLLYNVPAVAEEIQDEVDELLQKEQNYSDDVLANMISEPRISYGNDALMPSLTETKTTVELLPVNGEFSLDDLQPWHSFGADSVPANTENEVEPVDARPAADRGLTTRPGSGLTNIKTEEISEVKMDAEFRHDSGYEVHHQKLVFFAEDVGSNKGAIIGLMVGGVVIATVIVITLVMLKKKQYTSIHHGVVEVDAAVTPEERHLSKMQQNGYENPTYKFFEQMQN

[2] = target: Amyloid-beta precursor protein (Homo sapiens) (UniProt P05067); test: Inhibition of pH-click Amyloid beta (1 to 42) (unknown origin) aggregation 6 to 48 hrs by Thioflavin-T fluorescence assay
[3] = target: Amyloid-beta precursor protein (Homo sapiens) (UniProt P05067); test: Inhibition of pH-click Amyloid beta (1 to 42) (unknown origin) aggregation after 24 hrs by Thioflavin-T fluorescence assay; design: concentration or dose not given beside the values; details: concentration not given here
[4] = target: Amyloid-beta precursor protein (Homo sapiens) (UniProt P05067); test: Inhibition of pH-click Amyloid beta (1 to 42) (unknown origin) aggregation after 48 hrs by Thioflavin-T fluorescence assay; design: concentration or dose not given beside the values; details: concentration not given here

inhibition [1]	inhibition [2]	inhibition [3]	inhibition [4]	Molecule
Active	Active			H-KLVFFA-OH
		13%	< 5%	CC[C@H](C)[C@H](NC(=O)[C@@H](NC(=O)[C@H](C)NC(=O)CNC(=O)CCc1cccc2c1oc1c(CCNC(=O)CNC(=O)[C@@H](NC(=O)[C@H](CC(=O)O)NC(=O)[C@H](CCC(=O)O)NC(=O)CCOCCOCCOCCOCCOCCOCCOCCOCCN)C(C)C)cccc12)[C@@H](C)CC)C(=O)O (H-[PEG8]EDVG[X1]GAII-OH)
		56%	56%	CC[C@H](C)[C@H](NC(=O)CCc1cccc2c1oc1c(CCNC(=O)[C@H](CC(N)=O)NC(=O)[C@H](CO)NC(=O)CNC(=O)[C@@H](NC(=O)CCOCCOCCOCCOCCOCCOCCOCCOCCN)C(C)C)cccc12)C(=O)N[C@H](C(=O)NCC(=O)N[C@@H](CC(C)C)C(=O)O)[C@@H](C)CC (H-[PEG8]VGSN[X1]IIGL-OH)
		49%	39%	CC[C@H](C)[C@H](NC(=O)CCc1cccc2c1oc1c(CCNC(=O)[C@H](CC(N)=O)NC(=O)[C@H](CO)NC(=O)CNC(=O)[C@@H](N)C(C)C)cccc12)C(=O)N[C@H](C(=O)NCC(=O)N[C@@H](CC(C)C)C(=O)NCCOCCOCCOCCOCCOCCOCCOCCOCCC(=O)O)[C@@H](C)CC (H-VGSN[X1]IIGL[PEG8]-OH)
		12%	< 5%	CC[C@H](C)[C@H](NC(=O)CCc1cccc2c1oc1c(CCNC(=O)[C@H](CCCCN)NC(=O)[C@H](CC(N)=O)NC(=O)[C@H](CO)NC(=O)CN)cccc12)C(=O)NCC(=O)N[C@@H](CC(C)C)C(=O)N[C@@H](CC[S+](C)[O-])C(=O)NCCOCCOCCOCCOCCOCCOCCOCCOCCC(=O)O (some centres undefined) (H-GSNK[X1]IGL[Met(O)][PEG8]-OH)
		10%	< 5%	CC[C@H](C)[C@H](NC(=O)[C@H](C)NC(=O)CCc1cccc2c1oc1c(CCNC(=O)[C@H](CO)NC(=O)CNC(=O)[C@@H](NC(=O)[C@H](CC(=O)O)NC(=O)CCOCCOCCOCCOCCOCCOCCOCCOCCN)C(C)C)cccc12)C(=O)N[C@H](C(=O)NCC(=O)O)[C@@H](C)CC (H-[PEG8]DVGS[X1]AIIG-OH)
		13%	< 5%	CC(C)C[C@H](NC(=O)CNC(=O)CCc1cccc2c1oc1c(CCNC(=O)CNC(=O)[C@H](CCCCN)NC(=O)[C@H](CC(N)=O)NC(=O)[C@H](CO)NC(=O)CCOCCOCCOCCOCCOCCOCCOCCOCCN)cccc12)C(=O)N[C@@H](CC[S+](C)[O-])C(=O)N[C@H](C(=O)O)C(C)C (some centres undefined) (H-[PEG8]SNKG[X1]GL[Met(O)]V-OH)

The remaining lines, values behind:

Molecule	inhibition [1]	inhibition [2]	inhibition [3]	inhibition [4]
CC[C@H](C)[C@H](NC(=O)[C@H](C)NC(=O)CNC(=O)CCc1cccc2c1oc1c(CCNC(=O)CNC(=O)[C@@H](NC(=O)[C@H](CC(=O)O)NC(=O)[C@@H](N)CCC(=O)O)C(C)C)cccc12)C(=O)N[C@H](C(=O)NCCOCCOCCOCCOCCOCCOCCOCCOCCC(=O)O)[C@@H](C)CC (H-EDVG[X1]GAII[PEG8]-OH)			16%	20%
CC[C@H](C)[C@H](NC(=O)CCc1cccc2c1oc1c(CCNC(=O)[C@H](CCCCN)NC(=O)[C@H](CC(N)=O)NC(=O)[C@H](CO)NC(=O)CNC(=O)CCOCCOCCOCCOCCOCCOCCOCCOCCN)cccc12)C(=O)NCC(=O)N[C@@H](CC(C)C)C(=O)N[C@@H](CC[S+](C)[O-])C(=O)O (some centres undefined) (H-[PEG8]GSNK[X1]IGL[Met(O)]-OH)			9%	< 5%
CC(C)C[C@H](NC(=O)CNC(=O)CCc1cccc2c1oc1c(CCNC(=O)CNC(=O)[C@H](CCCCN)NC(=O)[C@H](CC(N)=O)NC(=O)[C@@H](N)CO)cccc12)C(=O)N[C@@H](CC[S+](C)[O-])C(=O)N[C@H](C(=O)NCCOCCOCCOCCOCCOCCOCCOCCOCCC(=O)O)C(C)C (some centres undefined) (H-SNKG[X1]GL[Met(O)]V[PEG8]-OH)			7%	< 5%
CC(C)C[C@@H](NC(=O)[C@H](N)CCCCN)C(=O)N[C@@H](C(=O)N[C@H](Cc1ccccc1)C(=O)N[C@H](Cc1ccccc1)C(=O)N[C@H](C)C(=O)O)C(C)C (H-[dK][dL][dV][dF][dF][dA]-OH)	Active	Active		
CC[C@H](C)[C@H](NC(=O)[C@H](C)NC(=O)CCc1cccc2c1oc1c(CCNC(=O)[C@H](CO)NC(=O)CNC(=O)[C@@H](NC(=O)[C@@H](N)CC(=O)O)C(C)C)cccc12)C(=O)N[C@H](C(=O)NCC(=O)NCCOCCOCCOCCOCCOCCOCCOCCOCCC(=O)O)[C@@H](C)CC (H-DVGS[X1]AIIG[PEG8]-OH)			< 5%	< 5%
